Laboratory results reported in patent US5447934A, “Anti-allergic thiadiazolo [4,3-a]pyridine derivatives” (Boehringer Mannheim GmbH, priority 1991, dated 1995).

Tested on: passive sensitised guinea pig lung parenchyma strips
Assay: Inhibition of the antigen-caused constriction of passive sensitised guinea pig lung parenchyma strips in vitro (organ bath)
Type: cell-based
Details: Cavia porcellus, 20 min; 10 μg/ml substance; ovalbumin 0.1 μg/ml; 20 min/37°C. preincubation; read-out: % Inhibition of the constriction of passive-sensitised lung parenchyms strips (guinea pigs) induced by ovalbumin
Protocol: Inhibition of the antigen-caused construction of passive sensitised guinea pig lung parenchyma strips in vitro (organ bath)
For the in vitro investigation of the compounds according to the invention, the inhibition of the antigen-caused constriction of passive sensitised guinea pig lung parenchyma strips was measured, as described in the following:
Pirbright white guinea pigs were stunned by a blow to the nape of the neck and exsanguinated. The lungs were rinsed substantially blood-free in situ with Krebs buffer, pH 7.4. Subsequently, the lungs were removed, cut up into strips (about […]) and the strips passively sensitised for one hour at room temperature with a 1.:50 dilution of a homologous anti-ovalbumin antiserum and then washed with Krebs buffer 1 x. The antiserum had been previously produced according to DAVIES (1) in guinea pigs of the same strain by repeated injection of ovalbumin (2 x crystallised) with addition of complete Freund's adjuvant. Until its used the antiserum was stored undiluted at -18° C. Subsequently, the lung strips were individually suspended on an isometric measurement sensor in 10 ml waterbaths with an initial tension of 1.2 g. Thereafter, the baths were filled with Krebs buffer and continuously gassed at 37° C. with O2 (95%) and CO2 (5%). Via an amplifier the constrictions of the lung strips were recorded on a recorder. After 30 minutes acclimatisation phase, histamine control spasms were produced for the recognition of the reactivity of the organ pieces washed, subsequently the best substance preincubated 37° C. for 20 minutes and thereafter the ovalbumin-caused constriction initiated. The inhibition action of the compounds according to the invention was expressed as percentage reduction of the constriction amplitude of the "samples with best substance" in relation to the "untreated control constrictions".

Row | Structure (SMILES) | inhibition at 10 µg/mL
1 | c1ccc(N=c2snc3ccccn23)nc1 [Example 2a, 3-(2-pyridinylimino)-3H-[1,2,4]-thiadiazolo [4,3-a]-pyridine] | 56%
2 | c1ccn2c(=Nc3ccncc3)snc2c1 [Example 2b, 3-(4-pyridinylimino)-3H-[1,2,4]-thiadiazolo [4,3-a]-pyridine] | 80%
3 | COc1ccc(N=c2snc3ccccn23)cc1 [Example 2e, 3-(4-methoxyphenylimino)-3H-[1,2,4]-thiadiazolo-[4,3-a]pyridine] | 48%
4 | Cc1cc(O)ccc1N=c1snc2ccccn12 [Example 2p, 3-(4-hydroxy-2-methyl-phenylimino)-3H-[1,2,4]-thiadiazolo [4,3-a]-pyridine] | 62%
5 | c1ccn2c(=Nc3ccc4c(c3)OCO4)snc2c1 [Example 2q, 3-(3,4-methylenedioxyphenyl-imino)-3H-[1,2,4]-thiadia-zolo [4,3-a]-pyridine] | 57%
6 | c1ccn2c(=NC3=NCCS3)snc2c1 [Example 2u, 3-(4,5-dihydrothiazol-2-ylimino)-3H-[1,2,4]-thia-diazolo [4,3-a]pyridine] | 78%
7 | Clc1ccc2nsc(=Nc3ccncc3)n2c1 [Example 4] | 61%
8 | CN(O)C(=O)Cc1ccc(N=c2snc3ccccn23)cc1 [Example 9, 4-(3H-[1,2,4]-Thiadiazole[4,3-a]-pyridin-3-ylideneamino)-phenylacetic acid N-methylhydroxamide] | 61%

Same assay, conditions: Cavia porcellus, 20 min; 200 μg/ml substance (footnote +); ovalbumin 0.1 μg/ml; 20 min/37°C. preincubation; read-out: % Inhibition of the constriction of passive-sensitised lung parenchyms strips (guinea pigs) induced by ovalbumin

Row | Structure (SMILES) | inhibition at 200 µg/mL
9 | Cn1c(=O)c2[nH]cnc2n(C)c1=O [aminophylline, reference compound] | 26%
